Legend:
[1] = molecular target: T1, Gag-Pol polyprotein [588-1027] (Human immunodeficiency virus type 1 group M subtype B (isolate HXB2), UniProt P04585); experiment: Reverse Transcriptase Assay; settings: pH 7.4; 37 °C
T1 construct: 588-1027

[2] = molecular target: T2, Gag-Pol polyprotein [588-1027,K691N,Y769C]/[588-1147,K691N,Y769C] (Human immunodeficiency virus 1, UniProt P04585, K691N/Y769C); experiment: Reverse Transcriptase Assay
T2 construct: 588-1027; 588-1147

SMILES | IC50 [1] | IC50 [2] | EC50 [1]
Cc1ccc(-n2nnnc2SCC(=O)Nc2ccc(-c3ccc(CC(=O)O)cc3)cc2Cl)c(Cl)c1 [2-{4-[3-chloro-4-(2-{[1-(2-chloro-4-methylphenyl)-1H-1,2,3,4-tetrazol-5-yl]sulfanyl}acetamido)phenyl]phenyl}acetic acid] | 2.4 nM | 48 nM | 
Cc1ccc(-n2ncc(C)c2SCC(=O)Nc2ccc(-c3ccc(CC(=O)O)cc3)cc2Cl)c(Cl)c1 [2-{4-[3-chloro-4-(2-{[1-(2-chloro-4-methylphenyl)-4-methyl-1H-pyrazol-5-yl]sulfanyl}acetamido)phenyl]phenyl}acetic acid] | > 10000 nM | > 10000 nM | 
Cc1ccc(-c2c(SCC(=O)Nc3ccc(-c4ccc(OCC(=O)O)cc4)cc3Cl)ccn2C)c(Cl)c1 [2-{4-[3-chloro-4-(2-{[2-(2-chloro-4-methylphenyl)-1-methyl-1H-pyrrol-3-yl]sulfanyl}acetamido)phenyl]phenoxy}acetic acid] | > 1000 nM |  | 
CC(C)(C)c1ccc(-c2c[nH]nc2OCC(=O)Nc2ccc(-c3ccc(CC(=O)O)cc3)cc2Cl)c(Cl)c1 [2-{4-[4-(2-{[4-(4-tert-butyl-2-chlorophenyl)-1H-pyrazol-3-yl]oxy}acetamido)-3-chlorophenyl]phenyl}acetic acid] | > 3300 nM |  | 
Cc1ccc(-n2cc(C)nc2SCC(=O)Nc2ccccc2Cl)c(Cl)c1 [2-{[1-(2-chloro-4-methylphenyl)-4-methyl-1H-imidazol-2-yl]sulfanyl}-N-(2-chlorophenyl)acetamide] | > 1000 nM | > 10000 nM | 
Cc1[nH]nc(OCC(=O)Nc2ccc(C#CC(C)(C)CO)cc2Cl)c1-c1ccc(C(C)(C)C)cc1Cl [2-{[4-(4-tert-butyl-2-chlorophenyl)-5-methyl-1H-pyrazol-3-yl]oxy}-N-[2-chloro-4-(4-hydroxy-3,3-dimethylbut-1-yn-1-yl)phenyl]acetamide] | > 3300 nM |  | > 5000 nM

Source: BindingDB's records for doi:10.1016/j.bmcl.2008.12.074 (Boehringer Ingelheim (Canada), 2009)
